What was measured:
hPPARδ = target: T1, hPPARδ (Homo sapiens, UniProt Q03181); test: in vitro assay on human PPAR subtypes (transactivation): hPPARδ; format: cell-based
T1 construct: (PPARδ: aa 128—C-terminus); expressed in transfected cells; host or cells: HEK293
T1 sequence (Q03181 128-441 limits assumed): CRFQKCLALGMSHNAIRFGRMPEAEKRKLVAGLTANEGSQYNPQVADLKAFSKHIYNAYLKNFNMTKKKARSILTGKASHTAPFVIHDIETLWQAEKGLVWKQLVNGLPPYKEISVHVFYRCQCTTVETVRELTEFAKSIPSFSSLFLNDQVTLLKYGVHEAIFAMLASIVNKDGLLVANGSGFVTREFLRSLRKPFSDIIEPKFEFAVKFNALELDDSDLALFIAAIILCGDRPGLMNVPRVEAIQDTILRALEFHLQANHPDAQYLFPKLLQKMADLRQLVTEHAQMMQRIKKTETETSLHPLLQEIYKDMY
Source text: “Activation” here is defined as the abovementioned downstream response, which in the case of PPAR's is gene transcription. Gene transcription may be measured indirectly as downstream production of proteins reflective of the activation of the particular PPAR subtype under study. Alternatively, an artificial reporter construct may be employed to study the activation of the individual PPAR's expressed in cells. The ligand binding domain of the particular receptor to be studied may be fused to the DNA binding domain of a transcription factor, which produces convenient laboratory readouts, such as the yeast GAL4 transcription factor DNA binding domain. The fusion protein may be transfected into a laboratory cell line along with a Gal4 enhancer, which effects the expression of the luciferase protein. When such a system is transfected into a laboratory cell line, binding of a receptor agonist to the fusion protein will result in light emission.
The PPAR transient transactivation assay may be based on transient transfection into human HEK293 cells of two plasmids encoding a chimeric test protein and a reporter protein respectively. The chimeric test protein may be a fusion of the DNA binding domain (DBD) from the yeast GAL4 transcription factor to the ligand binding domain (LBD) of the human PPAR proteins. The PPAR-LBD moiety harbored in addition to the ligand binding pocket also has the native activation domain, allowing the fusion protein to function as a PPAR ligand dependent transcription factor. The GAL4 DBD will direct the chimeric protein to bind only to Gal4 enhancers (of which none existed in HEK293 cells). The reporter plasmid contained a Gal4 enhancer driving the expression of the firefly luciferase protein. After transfection, HEK293 cells expressed the GAL4-DBD-PPAR-LBD fusion protein. The fusion protein will in turn bind to the Gal4 enhancer controlling the luciferase expression, and do nothing in the absence of ligand. […] The amount of luciferase protein is measured by light emission after addition of the appropriate substrate. […]

LXRα = target: T2, LXRα (Homo sapiens, UniProt Q13133); test: activity on nuclear receptor LXRα
T2 sequence (Q13133 1-447): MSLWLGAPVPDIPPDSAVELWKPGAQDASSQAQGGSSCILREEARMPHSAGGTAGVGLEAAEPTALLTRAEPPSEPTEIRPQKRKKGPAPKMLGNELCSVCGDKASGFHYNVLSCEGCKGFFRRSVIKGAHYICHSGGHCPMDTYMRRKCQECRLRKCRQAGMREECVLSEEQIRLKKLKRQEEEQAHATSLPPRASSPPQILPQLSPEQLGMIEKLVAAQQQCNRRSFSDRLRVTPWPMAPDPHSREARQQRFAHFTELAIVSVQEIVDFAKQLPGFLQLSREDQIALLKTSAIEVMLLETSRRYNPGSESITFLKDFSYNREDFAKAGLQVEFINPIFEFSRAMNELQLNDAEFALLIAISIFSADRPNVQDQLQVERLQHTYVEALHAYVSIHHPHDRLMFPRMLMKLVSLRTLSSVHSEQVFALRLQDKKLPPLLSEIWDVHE

2K1C rat clipped kidney = conditions: cited from earlier work

## Cc1cc(OC/C=C(/c2ccc(F)cc2)c2ccc(C#CCN3CCOCC3)cc2)ccc1OCC(=O)O [Compound 1, (E)-[4-[3-(4-Fluorophenyl)-3-[4-[3-(morpholin-4-yl)propynyl]phenyl]allyloxy]-2-methyl-phenoxy]acetic acid]
hPPARδ
  agonist type on PPARδ: full agonist
hPPARδ; versus PPARα
  selectivity for PPARδ over PPARα: at least 100 fold
hPPARδ; versus PPARγ
  selectivity for PPARδ over PPARγ: at least 400 fold
LXRα
  activity on LXRα: did not show any
2K1C rat clipped kidney; 2K1C rat kidneys
  levels of MCAD, COXIV, TFAM and Parkin proteins and AMPK activation: remained at the physiological levels
  mitochondrial biogenesis and autophagy (PGC1-a, LC3-II, ATG5): inhibited similarly in both treated and untreated
2K1C rat clipped kidney; 2K1C rat, compared to untreated animals
  BNIP3 protein in the mitochondrial fraction: decreased notably
2K1C rat clipped kidney; 2K1C rat, treated kidneys
  nuclear amounts of oxidative stress-responsive proteins NRF1 and NRF2: below physiological levels
2K1C rat clipped kidney; 2K1C rat, treated vs untreated clipped kidneys
  histochemical features of necrosis in clipped kidney: did not exhibit any histochemical features of necrosis
2K1C rat clipped kidney; 2K1C rat
  fibrotic lesions in clipped kidney: present only in perivascular areas
  oxidative stress in kidneys: attenuated
